Laboratory results taken from patent US9452992B2 (priority 2011, dated 2016).
Entries after “also recorded” stand apart in the source; their conditions may differ.

Columns and labels:
[1] = target: binding of cleaved EboV GPΔTM to NPC1 membranes (Mus musculus, UniProt O35604)
HeLa cells = type: cell-based, human
[2] = tested on: thermolysin-cleaved VSV EboV GP particles; type: cell-based, Ebola virus Zaire
cathepsin B = cathepsin B (Homo sapiens, UniProt P07858); type: biochemical
[3] = tested on: VSV particles pseudotyped with EboV Zaire GP; type: cell-based, Ebola virus Zaire
EBOV Zaire-1995 = type: cell-based, Ebola virus Zaire; conditions: 96 h
[4] = tested on: VSV particles pseudotyped with VSV G; type: cell-based, vesicular stomatitis virus
EboV = tested on: EboV; set-up: species or system Ebola virus
NPC1 = target: T1, NPC1 (Homo sapiens, UniProt O15118); type: binding
T1 construct: expressed in transfected cells; host or cells: CHO/NPC1-1 (CHOhNPC1) cells; 15,000 g membrane pellet
T1 sequence (O15118 23-1278): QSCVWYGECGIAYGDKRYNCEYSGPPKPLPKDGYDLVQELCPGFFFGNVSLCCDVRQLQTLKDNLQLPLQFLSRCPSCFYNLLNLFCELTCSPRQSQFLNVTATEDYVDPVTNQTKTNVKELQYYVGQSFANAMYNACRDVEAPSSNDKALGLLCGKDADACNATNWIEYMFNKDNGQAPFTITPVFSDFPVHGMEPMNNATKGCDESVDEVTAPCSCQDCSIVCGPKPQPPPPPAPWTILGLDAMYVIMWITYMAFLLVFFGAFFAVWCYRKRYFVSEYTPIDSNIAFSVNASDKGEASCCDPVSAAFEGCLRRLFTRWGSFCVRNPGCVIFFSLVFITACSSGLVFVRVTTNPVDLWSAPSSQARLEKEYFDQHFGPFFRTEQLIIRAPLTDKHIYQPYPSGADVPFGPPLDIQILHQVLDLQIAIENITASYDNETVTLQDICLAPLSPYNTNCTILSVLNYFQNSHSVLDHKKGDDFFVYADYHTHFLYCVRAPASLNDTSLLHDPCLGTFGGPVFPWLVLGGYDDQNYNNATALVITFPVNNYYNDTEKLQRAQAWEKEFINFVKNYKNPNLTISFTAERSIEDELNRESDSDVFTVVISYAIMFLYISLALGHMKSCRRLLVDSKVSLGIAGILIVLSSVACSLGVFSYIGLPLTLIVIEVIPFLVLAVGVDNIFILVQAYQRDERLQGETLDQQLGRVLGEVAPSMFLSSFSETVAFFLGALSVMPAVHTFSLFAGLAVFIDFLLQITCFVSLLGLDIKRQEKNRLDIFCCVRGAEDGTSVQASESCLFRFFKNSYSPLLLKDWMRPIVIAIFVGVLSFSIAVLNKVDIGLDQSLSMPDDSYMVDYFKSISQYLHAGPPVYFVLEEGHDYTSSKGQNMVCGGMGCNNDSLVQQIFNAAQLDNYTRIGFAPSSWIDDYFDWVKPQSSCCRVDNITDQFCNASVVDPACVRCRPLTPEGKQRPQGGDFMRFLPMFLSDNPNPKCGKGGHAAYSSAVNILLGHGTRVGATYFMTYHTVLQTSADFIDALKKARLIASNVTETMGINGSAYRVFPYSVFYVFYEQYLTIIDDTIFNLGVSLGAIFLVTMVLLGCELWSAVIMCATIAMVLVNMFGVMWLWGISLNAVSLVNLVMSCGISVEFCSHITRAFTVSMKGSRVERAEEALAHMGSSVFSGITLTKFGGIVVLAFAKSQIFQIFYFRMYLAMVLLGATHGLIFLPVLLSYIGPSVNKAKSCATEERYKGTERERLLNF

[5] = tested on: Ebola virus Zaire-Maying a encoding GFP; type: cell-based

Sequence of binding of cleaved EboV GPΔTM to NPC1 membranes (O35604 23-1277 limits assumed, stated change not applied): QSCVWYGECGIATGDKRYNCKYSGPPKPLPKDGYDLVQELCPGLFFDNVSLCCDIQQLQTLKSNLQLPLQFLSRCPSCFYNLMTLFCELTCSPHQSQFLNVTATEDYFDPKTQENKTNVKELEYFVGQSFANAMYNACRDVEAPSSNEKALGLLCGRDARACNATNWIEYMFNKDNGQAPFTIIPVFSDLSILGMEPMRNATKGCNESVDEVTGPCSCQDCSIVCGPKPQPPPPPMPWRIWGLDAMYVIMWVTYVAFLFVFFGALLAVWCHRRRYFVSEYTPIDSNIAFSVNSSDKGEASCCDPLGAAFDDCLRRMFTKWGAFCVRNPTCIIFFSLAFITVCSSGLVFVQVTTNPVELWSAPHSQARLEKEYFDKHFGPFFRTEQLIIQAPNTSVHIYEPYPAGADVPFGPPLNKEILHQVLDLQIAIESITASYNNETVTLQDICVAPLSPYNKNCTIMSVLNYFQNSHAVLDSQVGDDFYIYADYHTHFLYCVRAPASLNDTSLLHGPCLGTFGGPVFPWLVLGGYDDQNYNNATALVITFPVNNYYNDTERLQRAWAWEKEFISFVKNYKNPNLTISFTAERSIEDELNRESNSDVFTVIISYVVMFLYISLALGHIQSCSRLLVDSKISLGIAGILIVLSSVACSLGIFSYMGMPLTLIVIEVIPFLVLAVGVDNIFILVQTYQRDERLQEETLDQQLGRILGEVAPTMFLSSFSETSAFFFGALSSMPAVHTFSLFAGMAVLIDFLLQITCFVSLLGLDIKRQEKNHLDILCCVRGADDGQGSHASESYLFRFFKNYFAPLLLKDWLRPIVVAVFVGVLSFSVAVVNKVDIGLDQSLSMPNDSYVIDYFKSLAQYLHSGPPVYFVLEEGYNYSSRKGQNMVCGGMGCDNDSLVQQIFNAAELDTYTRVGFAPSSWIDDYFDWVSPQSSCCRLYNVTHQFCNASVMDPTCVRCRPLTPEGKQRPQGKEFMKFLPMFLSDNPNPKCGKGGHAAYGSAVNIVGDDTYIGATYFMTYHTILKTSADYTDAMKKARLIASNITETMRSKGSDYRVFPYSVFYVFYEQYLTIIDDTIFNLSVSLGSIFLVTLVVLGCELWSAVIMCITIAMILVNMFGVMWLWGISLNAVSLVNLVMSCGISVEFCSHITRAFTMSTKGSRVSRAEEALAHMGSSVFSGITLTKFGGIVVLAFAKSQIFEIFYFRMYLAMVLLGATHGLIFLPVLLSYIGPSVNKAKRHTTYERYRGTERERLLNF

## O=C(CC12CC3CC(CC(C3)C1)C2)NCC(=O)N1CCN(Cc2ccccc2)CC1 [3.0, 2-((3r,5r,7r)-adamantan-1-yl)-N-(2-(4-benzylpiperazin-1-yl)-2-oxoethyl)acetamide]
[1]
  inhibition of binding of cleaved EboV GPΔTM to NPC1 membranes: inhibited binding
HeLa cells
  cholesterol uptake from LE/LY into cells: inhibit cholesterol uptake
  induction of filipin-labelled cytoplasmic vacuoles: developed cytoplasmic vacuoles
[2]
  inhibition of infection by thermolysin-treated VSV EboV particles: inhibited infection
Cathepsin B
  effect on cathepsin B activity: no effect was observed
[3]
  inhibition of EboV GP infection in the screen: more than 80%
  inhibition of EboV GP-dependent infection of Vero cells: inhibits infection
EBOV Zaire-1995
  reduction of EboV growth on Vero cells: > 99%
[4]
  inhibition of VSV G-dependent infection of Vero cells: not

## CCN(CC)CCO[C@H]1CC[C@@]2(C)C(=CC[C@@H]3[C@@H]2CC[C@]2(C)C(=O)CC[C@@H]32)C1 [U18666A, reference compound]
[1]
  inhibition of binding of cleaved EboV GPΔTM to NPC1 membranes: does not inhibit binding

## CCCCc1oc2ccccc2c1C(=O)c1cc(I)c(OCCN(CC)CC)c(I)c1 [amiodarone]
EboV
  anti-EboV activity: weak anti-EboV activity

## COC(=O)c1ccc(COc2ccccc2CN2CCN(C(=O)CNC(=O)CC34CC5CC(CC(C5)C3)C4)CC2)cc1 [compound 3.48, methyl 4-((2-((4-(2-(2-((3r,5r,7r)-adamantan-1-yl)acetamido)acetyl)piperazin-1-yl)methyl)phenoxy)methyl)benzoate]
[1]
  inhibition of binding of cleaved EboV GPΔTM to NPC1 membranes: blocked; also recorded: inhibited binding
NPC1
  inhibition of cross-linking of 3.105 to NPC1: inhibited
HeLa cells
  cholesterol uptake from LE/LY into cells: inhibit cholesterol uptake
  induction of filipin-labelled cytoplasmic vacuoles: developed cytoplasmic vacuoles
[2]
  inhibition of infection by thermolysin-treated VSV EboV particles: inhibited infection
Cathepsin B
  effect on cathepsin B activity: no effect was observed
[3]
  potency as measured by a single cycle of EboV GP-dependent infection, relative to 3.0: increased the potency
[5]
  efficacy as measured by growth of EboV on Vero cells, relative to 3.0: increased

## C#Cc1ccc(COc2ccc(N=[N+]=[N-])cc2CN2CCN(C(=O)CNC(=O)CC34CC5CC(CC(C5)C3)C4)CC2)cc1 [compound 3.105, 2-((3r,5r,7r)-adamantan-1-yl)-N-(2-(4-(5-azido-2-((4-ethynylbenzyl)oxy)benzyl)piperazin-1-yl)-2-oxoethyl)acetamide]
NPC1
  cross-linking to NPC1: cross-linked
[3]
  inhibition of EboV GP-dependent infection of Vero cells: has anti-EboV activity

## COc1ccc([C@@H]2Sc3ccccc3N(CCN(C)C)C(=O)[C@@H]2OC(C)=O)cc1 [diltiazen]
EboV
  anti-EboV activity: weak anti-EboV activity

## CC/C(=C(\c1ccccc1)c1ccc(OCCN(C)C)cc1)c1ccccc1 [tamoxifen]
EboV
  anti-EboV activity: weak anti-EboV activity
